One may read the IC50 as the point on the concentration scale where inhibition reaches its midpoint.

The target in experiment [1] is T1, human E3 ubiquitin-protein ligase RNF31 (HOIP) (Homo sapiens, UniProt Q96EP0).
T1 sequence (Q96EP0 695-1072 limits assumed): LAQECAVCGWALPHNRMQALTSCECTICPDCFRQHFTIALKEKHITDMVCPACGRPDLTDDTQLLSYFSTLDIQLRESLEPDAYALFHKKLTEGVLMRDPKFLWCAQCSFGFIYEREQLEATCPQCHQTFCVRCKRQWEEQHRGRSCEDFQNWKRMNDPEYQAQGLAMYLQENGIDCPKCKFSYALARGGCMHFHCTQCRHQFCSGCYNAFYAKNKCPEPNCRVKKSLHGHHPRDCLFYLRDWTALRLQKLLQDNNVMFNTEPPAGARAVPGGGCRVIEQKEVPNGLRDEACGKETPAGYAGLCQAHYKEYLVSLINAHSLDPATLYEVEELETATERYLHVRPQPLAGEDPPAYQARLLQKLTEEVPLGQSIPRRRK
The experiment is described as follows: Cell-free HTRF-based HOIP inhibition assay. The experiment is classed as biochemical. In short, it runs like this: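 HTRF read (ex 337 nm; em 665 and 620 nm) after a 2.5 h, 25° C. ubiquitination step started by adding E2 plus substrates. Before that, E. coli-expressed human HOIP fragment and E1 were incubated 1 h at 25° C. with compound at 100-0.005 μM, 1% DMSO final.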

Experiment [2] concerns bladder carcinoma RT4 cell line. As to the kind of experiment: TNF-α-induced cytotoxicity assay (CellTiter-Glo viability). It counts as cell-based. Conditions: Homo sapiens, RT-4, 72 h. In short, it runs like this:
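RT4 bladder carcinoma cells, 1000 per well, stimulated with 1.25 ng/mL TNFα together with compound for 72 h at 37° C., 5% CO2. Viability read by CellTiter-Glo luminescence, proportional to cellular ATP, as a measure of HOIP-dependent cytotoxicity.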
Background: Cellular ATP, detected with luciferase, serves as a proxy for viable cell number.

Another experiment concerns NF-κB signaling pathway. The experiment is described as follows: Cell-based dual luciferase NF-κB reporter assay (HEK293 cells, TNF stimulated). Conditions: Homo sapiens, HEK293. How it is done:
Dual-luciferase reporter assay was designed to find inhibitors of HOIP affecting NF-κB signaling pathway. The assay was performed in HEK293 cells which were transfected with plasmids coding for Firefly and NanoLuc luciferases. The NanoLuc luciferase plasmid contains NF-κB response element which determines its expression.
The assay was run following standard dual-luciferase protocols. The assay consists of a few steps: • compounds were dispensed at a concentration range: 100-0.005 μM with a final DMSO concentration of 1% of final volume (25 μL); • cells were stimulated after 30 min with 2.5 ng/mL TNF; and • after 6 h Firefly and NanoLuc luciferase activities are determined according to the procedure described by the manufacturer of Nano-Glo Dual-Luciferase Reporter Assay System.
On the technique in general: A reporter such as luciferase makes a cellular process visible.

For `COc1ccc(S(=O)(=O)/C=C/CNC(=O)c2cc3c([nH]c2=O)CCN(C(=O)OC(C)(C)C)C3)cc1F` [Example 26, tert-butyl 3-{[(2E)-3-(3-fluoro-4-methoxybenzenesulfonyl)prop-2-en-1-yl]carbamoyl}-2-oxo-1,2,5,6,7,8-hexahydro-1,6-naphthyridine-6-carboxylate], the IC50 in experiment [1] is no more than 100 nM; in experiment [2] it was no more than 10000 nM; with NF-κB signaling pathway, no more than 1000 nM.

As for `CC(C)(C)OC(=O)N1CCc2[nH]c(=O)c(C(=O)NC/C=C/S(=O)(=O)c3ccc(Cl)cc3)cc2C1` [Example 27, tert-butyl 3-{[(2E)-3-(4-chlorobenzenesulfonyl)prop-2-en-1-yl]carbamoyl}-2-oxo-1,2,5,6,7,8-hexahydro-1,6-naphthyridine-6-carboxylate], the IC50 in experiment [1] is no more than 100 nM; in experiment [2], no more than 1000 nM; with NF-κB signaling pathway it was no more than 1000 nM.

For the molecule `O=C(NC/C=C/S(=O)(=O)c1ccc(Cl)cc1)c1cc2ccccc2[nH]c1=O` [Example 28, N-[(2E)-3-(4-chlorobenzenesulfonyl)prop-2-en-1-yl]-2-oxo-1,2-dihydroquinoline-3-carboxamide], the IC50 in experiment [1] was no more than 100 nM; in experiment [2], no more than 1000 nM; in the experiment with NF-κB signaling pathway it was no more than 1000 nM.

In the case of `O=C(NC/C=C/S(=O)(=O)c1ccc(Cl)cc1)c1cc2c([nH]c1=O)CCN(Cc1ccccc1)C2` [Example 29, 6-benzyl-N-[(2E)-3-(4-chlorobenzenesulfonyl)prop-2-en-1-yl]-2-oxo-1,2,5,6,7,8-hexahydro-1,6-naphthyridine-3-carboxamide], the results for the IC50 (in experiment [1]; in experiment [2]; with NF-κB signaling pathway) were no more than 100 nM, no more than 1000 nM and no more than 1000 nM, respectively.

On to `COc1ccc(S(=N)(=O)/C=C/CNC(=O)c2cc3c([nH]c2=O)CCCC3)cc1F` (stereo not drawn) [Example 30, N-[(2E)-3-[(3-fluoro-4-methoxyphenyl)(imino)oxo-λ^6-sulfanyl]prop-2-en-1-yl]-2-oxo-1,2,5,6,7,8-hexahydroquinoline-3-carboxamide], for which the 50% inhibitory concentration (IC50) in experiment [1] is no more than 100 nM; in experiment [2], no more than 1000 nM; with NF-κB signaling pathway, no more than 1000 nM.

As to `O=C(NC/C=C/S(=O)(=O)c1ccc(F)cc1F)c1cc2c([nH]c1=O)CCCC2` [Example 31, N-[(2E)-3-(2,4-difluorobenzenesulfonyl)prop-2-en-1-yl]-2-oxo-1,2,5,6,7,8-hexahydroquinoline-3-carboxamide], the values for the IC50 (in experiment [1]; in experiment [2]; in the experiment with NF-κB signaling pathway) were no more than 100 nM, no more than 1000 nM and no more than 1000 nM, respectively.

For the molecule `O=C(NC/C=C/S(=O)(=O)c1ccc(Cl)cc1Cl)c1cc2c([nH]c1=O)CCCC2` [Example 32, N-[(2E)-3-(2,4-dichlorobenzenesulfonyl)prop-2-en-1-yl]-2-oxo-1,2,5,6,7,8-hexahydroquinoline-3-carboxamide], the IC50 is no more than 100 nM in experiment [1], no more than 1000 nM in experiment [2] and no more than 1000 nM in the experiment on NF-κB signaling pathway.

Regarding `O=C(NC/C=C/S(=O)(=O)c1ccc(F)cc1Cl)c1cc2c([nH]c1=O)CCCC2` [Example 33, N-[(2E)-3-(2-chloro-4-fluorobenzenesulfonyl)prop-2-en-1-yl]-2-oxo-1,2,5,6,7,8-hexahydroquinoline-3-carboxamide], the IC50 is no more than 100 nM in experiment [1], no more than 1000 nM in experiment [2] and no more than 1000 nM in the experiment on NF-κB signaling pathway.

With `O=C(NC/C=C/S(=O)(=O)c1ccc(F)cc1F)c1cc2c([nH]c1=O)CCCCC2` [Example 34, N-[(2E)-3-(2,4-difluorobenzenesulfonyl)prop-2-en-1-yl]-2-oxo-1H,2H,5H,6H,7H,8H,9H-cyclohepta[b]pyridine-3-carboxamide], the IC50 (in experiment [1]; in experiment [2]; in the experiment on NF-κB signaling pathway) was no more than 1000 nM in each case.

For the molecule `O=C(NC/C=C/S(=O)(=O)c1ccc(F)cc1)c1cc2c([nH]c1=O)CCCCC2` [Example 35, N-[(2E)-3-(4-fluorobenzenesulfonyl)prop-2-en-1-yl]-2-oxo-1H,2H,5H,6H,7H,8H,9H-cyclohepta[b]pyridine-3-carboxamide], the IC50 in experiment [1] was no more than 1000 nM; in experiment [2], no more than 10000 nM; in the experiment on NF-κB signaling pathway, no more than 1000 nM.

As for `O=C(NC/C=C/S(=O)(=O)c1ccc(Cl)cc1)c1cc2c([nH]c1=O)CCCCC2` [Example 36, N-[(2E)-3-(4-chlorobenzenesulfonyl)prop-2-en-1-yl]-2-oxo-1H,2H,5H,6H,7H,8H,9H-cyclohepta[b]pyridine-3-carboxamide], the IC50 in experiment [1] is no more than 1000 nM; in experiment [2], no more than 10000 nM; in the experiment with NF-κB signaling pathway, no more than 100000 nM.

Turning to `O=C(NC/C=C/S(=O)(=O)c1ccccc1)c1cc2c([nH]c1=O)CCCCC2` [Example 38, N-[(2E)-3-(benzenesulfonyl)prop-2-en-1-yl]-2-oxo-1H,2H,5H,6H,7H,8H,9H-cyclohepta[b]pyridine-3-carboxamide], the IC50 (in experiment [1]; in experiment [2]; in the experiment with NF-κB signaling pathway) was no more than 1000 nM in each case.

As for `O=C(NC/C=C/S(=O)(=O)c1cccc(F)c1)c1cc2c([nH]c1=O)CCCC2` [Example 39, N-[(2E)-3-(3-fluorobenzenesulfonyl)prop-2-en-1-yl]-2-oxo-1,2,5,6,7,8-hexahydroquinoline-3-carboxamide], the values for the IC50 (in experiment [1]; in experiment [2]; in the experiment with NF-κB signaling pathway) were no more than 100 nM, no more than 1000 nM and no more than 1000 nM, respectively.

Take `COc1ccc(S(=O)(=O)/C=C/CNC(=O)c2cc3c([nH]c2=O)CCCC3)cc1` [Example 40, N-[(2E)-3-(4-methoxybenzenesulfonyl)prop-2-en-1-yl]-2-oxo-1,2,5,6,7,8-hexahydroquinoline-3-carboxamide]: the IC50 (in experiment [1]; in experiment [2]; in the experiment with NF-κB signaling pathway) was no more than 1000 nM each time.

As to `O=C(NC/C=C/S(=O)(=O)c1ccccc1Cl)c1cc2c([nH]c1=O)CCCC2` [Example 41, N-[(2E)-3-(2-chlorobenzenesulfonyl)prop-2-en-1-yl]-2-oxo-1,2,5,6,7,8-hexahydroquinoline-3-carboxamide], the IC50 is no more than 100 nM in experiment [1], no more than 1000 nM in experiment [2] and no more than 1000 nM in the experiment with NF-κB signaling pathway.

Turning to `O=C(NC/C=C/S(=O)(=O)c1ccc(F)cc1F)c1cc2c([nH]c1=O)CCC2` [Example 42, N-[(2E)-3-(2,4-difluorobenzenesulfonyl)prop-2-en-1-yl]-2-oxo-1H,2H,5H,6H,7H-cyclopenta[b]pyridine-3-carboxamide], the IC50 in experiment [1] was no more than 1000 nM; in experiment [2], no more than 1000 nM; in the experiment with NF-κB signaling pathway it was no more than 10000 nM.

As to `O=C(NC/C=C/S(=O)(=O)c1ccccc1)c1cc2c([nH]c1=O)CCC2` [Example 43, N-[(2E)-3-(benzenesulfonyl)prop-2-en-1-yl]-2-oxo-1H,2H,5H,6H,7H-cyclopenta[b]pyridine-3-carboxamide], the IC50 in experiment [1] was no more than 100 nM; in experiment [2], no more than 10000 nM; in the experiment with NF-κB signaling pathway, no more than 10000 nM.

In the case of `O=C(NC/C=C/S(=O)(=O)c1cccs1)c1cc2c([nH]c1=O)CCCC2` [Example 44, 2-oxo-N-[(2E)-3-(thiophene-2-sulfonyl)prop-2-en-1-yl]-1,2,5,6,7,8-hexahydroquinoline-3-carboxamide], the IC50 (in experiment [1]; in experiment [2]; in the experiment with NF-κB signaling pathway) was no more than 1000 nM each time.

For `COc1ccc(S(=O)(=O)/C=C/CNC(=O)c2cc3c([nH]c2=O)CCCC3)cc1OC` [Example 45, N-[(2E)-3-(3,4-dimethoxybenzenesulfonyl)prop-2-en-1-yl]-2-oxo-1,2,5,6,7,8-hexahydroquinoline-3-carboxamide], the IC50 in experiment [1] is no more than 1000 nM; in experiment [2] it was no more than 10000 nM; in the experiment on NF-κB signaling pathway, no more than 1000 nM.

On to `CC(C)C1CCc2[nH]c(=O)c(C(=O)NC/C=C/S(=O)(=O)c3ccccc3)cc2C1` (stereo not drawn) [Example 46, N-[(2E)-3-(benzenesulfonyl)prop-2-en-1-yl]-2-oxo-6-(propan-2-yl)-1,2,5,6,7,8-hexahydroquinoline-3-carboxamide], for which the IC50 (in experiment [1]; in experiment [2]; in the experiment on NF-κB signaling pathway) was no more than 1000 nM in each case.

With `O=C(NC/C=C/S(=O)(=O)c1ccccc1)c1cc2cccnc2[nH]c1=O` [Example 47, N-[(2E)-3-(benzenesulfonyl)prop-2-en-1-yl]-2-oxo-1,2-dihydro-1,8-naphthyridine-3-carboxamide], the IC50 in experiment [1] is no more than 1000 nM; in experiment [2], no more than 10000 nM; in the experiment on NF-κB signaling pathway, no more than 10000 nM.

Regarding `CC1(C)CCc2[nH]c(=O)c(C(=O)NC/C=C/S(=O)(=O)c3ccccc3)cc2C1` [Example 48, N-[(2E)-3-(benzenesulfonyl)prop-2-en-1-yl]-6,6-dimethyl-2-oxo-1,2,5,6,7,8-hexahydroquinoline-3-carboxamide], the IC50 (in experiment [1]; in experiment [2]; with NF-κB signaling pathway) was no more than 1000 nM throughout.

For the origin of these results see US20260250250A1, “3-(SULPHONYL OR SULFONIMIDOYL)PROP-2-EN-1-YL]-2-OXO-1,2-DIHYDROPYRIDINE-3-CARBOXAMIDE DERIVATIVES” (Flinder Therapeutics B.V., priority 2022, published 2026).
